Measurements reported in US20030013660A1, “Dioxolane analogs for improved inter-cellular delivery” (Shire BioChem Inc., priority 2000, published 2003).

Assays:
[1] = target: T1, hCNT3 (Homo sapiens, UniProt Q9HAS3); settings: 100-fold non-radioactive troxacitabine, differentiated HL-60
T1 sequence (Q9HAS3 1-691): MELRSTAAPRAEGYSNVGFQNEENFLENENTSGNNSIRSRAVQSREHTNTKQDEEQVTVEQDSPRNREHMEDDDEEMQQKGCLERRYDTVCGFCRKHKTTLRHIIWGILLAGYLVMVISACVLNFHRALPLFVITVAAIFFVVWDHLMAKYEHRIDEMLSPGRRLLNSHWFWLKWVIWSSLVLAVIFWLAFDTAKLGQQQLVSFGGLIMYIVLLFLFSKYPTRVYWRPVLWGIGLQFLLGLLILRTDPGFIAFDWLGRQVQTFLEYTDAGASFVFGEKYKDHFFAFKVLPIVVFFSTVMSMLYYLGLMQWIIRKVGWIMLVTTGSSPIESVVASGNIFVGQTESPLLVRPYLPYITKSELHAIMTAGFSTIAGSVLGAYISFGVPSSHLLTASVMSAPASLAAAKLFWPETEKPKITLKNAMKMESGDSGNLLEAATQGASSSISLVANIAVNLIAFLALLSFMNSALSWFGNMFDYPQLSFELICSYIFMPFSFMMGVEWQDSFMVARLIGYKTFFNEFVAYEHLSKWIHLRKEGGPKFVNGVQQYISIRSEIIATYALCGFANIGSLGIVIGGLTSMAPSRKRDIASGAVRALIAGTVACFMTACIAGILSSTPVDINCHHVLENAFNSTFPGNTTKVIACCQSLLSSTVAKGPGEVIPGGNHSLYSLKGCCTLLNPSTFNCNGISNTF
Text: The ability of a high concentration (100-fold) of non-radioactive troxacitabine to inhibit the uptake of ^3H]uridine by hCNT3 was examined in a differentiated HL-60 model system [Ritzel et al. (2000), supra].

[2] = system: CEM/ARAC8C cells; test: CellTiter 96 cell proliferation assay (chemosensitivity), 48 h; assay type: cell-based; settings: read-out: EC50 (50% of the dose response curve); CEM/ARAC8C cells, 48 h exposure
Protocol: (§1) The chemosensitivity of suspension cells lines (e.g., CEM or CEM-derivatives) is assessed using the CellTiter 96 ? proliferation assay. […] Adherent cell lines (e.g., DU145 or DU145^R) are seeded (^˜10^5 cells) in triplicate dishes, 24 h before drug exposure. Growth inhibition is determined by trypsinization and counting cells electronically.

[3] = system: CEM cells; test: as above; assay type: cell-based
Protocol: as §1

[4] = target: T2, hENT2 (Homo sapiens, UniProt Q14542)
T2 sequence (Q14542 1-456): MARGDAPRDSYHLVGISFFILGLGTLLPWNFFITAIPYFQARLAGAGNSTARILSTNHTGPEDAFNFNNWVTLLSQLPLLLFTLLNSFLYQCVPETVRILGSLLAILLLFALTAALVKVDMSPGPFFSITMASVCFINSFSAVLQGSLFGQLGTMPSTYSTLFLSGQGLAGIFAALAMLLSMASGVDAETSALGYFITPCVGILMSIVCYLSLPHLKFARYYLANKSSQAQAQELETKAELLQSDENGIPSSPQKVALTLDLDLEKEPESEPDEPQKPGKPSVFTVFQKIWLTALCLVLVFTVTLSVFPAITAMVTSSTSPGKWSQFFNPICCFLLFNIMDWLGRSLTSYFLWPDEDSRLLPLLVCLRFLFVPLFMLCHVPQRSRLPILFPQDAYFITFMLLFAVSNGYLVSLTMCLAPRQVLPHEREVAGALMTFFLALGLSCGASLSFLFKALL
Protocol: B.Uptake of [^3H]troxacitabine either in the absence ( ? ) or presence of 100 nM NBMPR (▴), 100 μM dilazep (▾), 1 mM non-radioactive troxacitabine (♦) or 20 μM dipyridamole (●), using an expanded scale of 0-15 pmol/10^6 cells. Each data point represents the mean (±standard deviation) of three determinations.
Briefly, for adherent cells, uptake assays are conducted at room temperature under zero-trans conditions in either sodium-containing transport buffer (20 mM Tris/HCl, 3 mM K2HPO4, 1 mM MgCl2.6H2O, 2 mM CaCl2, 5 mM glucose and 130 mM NaCl, pH 7.4, 300±15 mOsm) or sodium-free transport buffer with NaCl replaced by N-methyl-D-glucamine. […] After the plates are drained, the cells are lysed with 5% Triton X-100 and mixed with Ecolite scintillation fluid to measure the cell-associated radioactivity (Beckman LS 6500 scintillation counter; Beckman-Coulter Canada, Mississauga, ON). Uptake at the zero time-point is determined by treating cells for 10 min at 4° C. with transport buffer containing 100 μM dilazep, then adding the radioactive nucleoside for 2 s before reaction termination as described above. […] Uptake at the zero time-point is determined by adding cells to cold transport buffer containing radiolabeled permeant and dilazep, and immediate centrifugation. Cell pellets are lysed and cell-associated radioactivity measured. […]

[5] = target: T3, hENT1 (Homo sapiens, UniProt Q99808); test: Cellular uptake assay of [3H]nucleoside in CEM cells (es activity); assay type: in vitro ADME; parameters: endogenous in cells; settings: compared with uridine
T3 sequence (Q99808 1-456): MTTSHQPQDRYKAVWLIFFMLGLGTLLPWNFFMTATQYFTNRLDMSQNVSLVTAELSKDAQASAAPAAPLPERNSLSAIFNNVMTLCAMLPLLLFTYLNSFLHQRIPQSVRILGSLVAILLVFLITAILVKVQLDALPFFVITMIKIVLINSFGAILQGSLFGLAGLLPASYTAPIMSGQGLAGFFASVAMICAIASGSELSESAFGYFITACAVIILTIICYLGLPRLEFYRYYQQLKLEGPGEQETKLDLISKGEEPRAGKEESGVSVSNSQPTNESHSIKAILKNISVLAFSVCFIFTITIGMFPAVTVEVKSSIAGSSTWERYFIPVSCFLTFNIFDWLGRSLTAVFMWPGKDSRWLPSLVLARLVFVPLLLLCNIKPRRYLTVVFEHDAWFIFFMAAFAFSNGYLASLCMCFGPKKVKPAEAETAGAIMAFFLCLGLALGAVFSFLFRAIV
Protocol: FIG. 1 Comparative uptake of 30 μM [^3H]-troxacitabine in CEM (Panel A) and CEM/ARAC8C (Panel B) cells. [^3H]-Uridine uptake in either the presence or absence of the hENT1 inhibitor, NBMPR or 5 mM non-radioactive uridine was included for comparison as a control substrate.
Cancer Res., 56: 4187-4191.
The transport of [^3H]uridine was inhibited in the presence either of the hENT1 inhibitor, NBMPR, or excess non-radioactive uridine.

Nc1ccn([C@@H]2CO[C@H](CO)O2)c(=O)n1 [Troxacitabine, troxacitabine]
effect on [3H]uridine uptake by hCNT3 [1]: no effect on uridine uptake
EC50 [2]: 1.18 µM
EC50 ([3]; Homo sapiens, CCRF-CEM, read-out: EC50 (50% of the dose response curve), CEM cells, 48 h exposure): 0.16 µM
effect of the es transport inhibitor NBMPR on resistance of CEM cells ([3]; presence of NBMPR): not
inhibition of uptake by NBMPR, dilazep, dipyridamole or excess non-radioactive troxacitabine [4]: no substantial inhibition
uptake of [3H]nucleoside over the 6-min time course [5]: taken up to a lesser degree
